Laboratory results as given in ChEMBL document CHEMBL2010711, “Synthesis and comparative evaluation of 4-oxa- and 4-aza-podophyllotoxins as antiproliferative microtubule destabilizing agents” (Bioorg Med Chem Lett, 2012).
The source made the active and inactive calls.

Assays:
[1] = tested on: HCT-15; assay: Cytotoxicity against human HCT15 cells after 48 hrs by trypan blue dye exclusion assay; type: functional; conditions: HCT-15, 48 h
[2] = tested on: BT-549; assay: Cytotoxicity against human BT549 cells after 48 hrs by trypan blue dye exclusion assay; type: functional; conditions: BT-549, 48 h
[3] = tested on: IGROV-1; assay: Cytotoxicity against human IGROV1 cells after 48 hrs by trypan blue dye exclusion assay; type: functional; conditions: IGROV-1, 48 h
[4] = tested on: M14; assay: Cytotoxicity against human M14 cells after 48 hrs by trypan blue dye exclusion assay; type: functional; conditions: M14, 48 h
[5] = tested on: SN12C; assay: Cytotoxicity against human SN12C cells after 48 hrs by trypan blue dye exclusion assay; type: functional
[6] = tested on: Paracentrotus lividus; assay: Antimitotic activity against Paracentrotus lividus embryo assessed as cleavage alteration at 2 fold less effective threshold concentration after 2.5 to 6 hrs; type: functional, organism-based
[7] = tested on: OVCAR-4; assay: Cytotoxicity against human OVCAR4 cells after 48 hrs by trypan blue dye exclusion assay; type: functional; conditions: OVCAR-4, 48 h
[8] = tested on: SF-539; assay: Cytotoxicity against human SF539 cells after 48 hrs by trypan blue dye exclusion assay; type: functional; conditions: SF-539, 48 h
[9] = tested on: COLO 205; assay: Cytotoxicity against human COLO205 cells after 48 hrs by trypan blue dye exclusion assay; type: functional; conditions: COLO 205, 48 h
[10] = tested on: K562; assay: Cytotoxicity against human K562 cells after 48 hrs by trypan blue dye exclusion assay; type: functional; conditions: K562, 48 h
[11] = tested on: SK-OV-3; assay: Cytotoxicity against human SKOV3 cells after 48 hrs by trypan blue dye exclusion assay; type: functional; conditions: SK-OV-3, 48 h
[12] = tested on: RPMI-8226; assay: Cytotoxicity against human RPMI8226 cells after 48 hrs by trypan blue dye exclusion assay; type: functional; conditions: RPMI-8226, 48 h
[13] = tested on: UACC-257; assay: Cytotoxicity against human UACC257 cells after 48 hrs by trypan blue dye exclusion assay; type: functional; conditions: UACC-257, 48 h
[14] = tested on: OVCAR-3; assay: Cytotoxicity against human OVCAR3 cells after 48 hrs by trypan blue dye exclusion assay; type: functional; conditions: OVCAR-3, 48 h
[15] = tested on: NCI-H522; assay: Cytotoxicity against human NCI-H522 cells after 48 hrs by trypan blue dye exclusion assay; type: functional; conditions: NCI-H522, 48 h
[16] = tested on: UACC-62; assay: Cytotoxicity against human UACC62 cells after 48 hrs by trypan blue dye exclusion assay; type: functional; conditions: UACC-62, 48 h
[17] = tested on: SK-MEL-28; assay: Cytotoxicity against human SK-MEL-28 cells after 48 hrs by trypan blue dye exclusion assay; type: functional; conditions: SK-MEL-28, 48 h
[18] = tested on: SF-268; assay: Cytotoxicity against human SF268 cells after 48 hrs by trypan blue dye exclusion assay; type: functional; conditions: SF-268, 48 h
[19] = tested on: Malme-3M; assay: Cytotoxicity against human MALME-3M cells after 48 hrs by trypan blue dye exclusion assay; type: functional
[20] = tested on: HOP-62; assay: Cytotoxicity against human HOP62 cells after 48 hrs by trypan blue dye exclusion assay; type: functional; conditions: HOP-62, 48 h
[21] = tested on: NCI-H460; assay: Cytotoxicity against human NCI-H460 cells after 48 hrs by trypan blue dye exclusion assay; type: functional; conditions: NCI-H460, 48 h
[22] = tested on: Paracentrotus lividus; assay: Antimitotic activity against Paracentrotus lividus embryo assessed as cleavage arrest at 2 fold less effective threshold concentration after 2.5 to 6 hrs; type: functional, organism-based
[23] = tested on: NCI/ADR-RES; assay: Cytotoxicity against human NCI/ADR-RES cells after 48 hrs by trypan blue dye exclusion assay; type: functional
[24] = tested on: SNB-75; assay: Cytotoxicity against human SNB75 cells after 48 hrs by trypan blue dye exclusion assay; type: functional; conditions: SNB-75, 48 h
[25] = tested on: DU-145; assay: Cytotoxicity against human DU145 cells after 48 hrs by trypan blue dye exclusion assay; type: functional; conditions: DU-145, 48 h
[26] = tested on: A549; assay: Cytotoxicity against human A549 cells after 48 hrs by trypan blue dye exclusion assay; type: functional; conditions: A549, 48 h
[27] = tested on: PC-3; assay: Cytotoxicity against human PC3 cells after 48 hrs by trypan blue dye exclusion assay; type: functional; conditions: PC-3, 48 h
[28] = tested on: SNB-19; assay: Cytotoxicity against human SNB19 cells after 48 hrs by trypan blue dye exclusion assay; type: functional; conditions: SNB-19, 48 h
[29] = Cytotoxicity against human Hs 578T cells after 48 hrs by trypan blue dye exclusion assay; type: functional
[30] = tested on: U-251; assay: Cytotoxicity against human U251 cells after 48 hrs by trypan blue dye exclusion assay; type: functional; conditions: U-251, 48 h
[31] = tested on: T47D; assay: Cytotoxicity against human T47D cells after 48 hrs by trypan blue dye exclusion assay; type: functional
[32] = tested on: MDA-MB-435; assay: Cytotoxicity against human MDA-MB-435 cells after 48 hrs by trypan blue dye exclusion assay; type: functional; conditions: MDA-MB-435, 48 h
[33] = tested on: MDA-MB-231; assay: Cytotoxicity against human MDA-MB-231 cells after 48 hrs by trypan blue dye exclusion assay; type: functional; conditions: MDA-MB-231, 48 h
[34] = tested on: EKVX; assay: Cytotoxicity against human EKVX cells after 48 hrs by trypan blue dye exclusion assay; type: functional
[35] = tested on: HCT-116; assay: Cytotoxicity against human HCT116 cells after 48 hrs by trypan blue dye exclusion assay; type: functional; conditions: HCT-116, 48 h
[36] = tested on: NCI-H226; assay: Cytotoxicity against human NCI-H226 cells after 48 hrs by trypan blue dye exclusion assay; type: functional; conditions: NCI-H226, 48 h
[37] = tested on: MCF7; assay: Cytotoxicity against human MCF7 cells after 48 hrs by trypan blue dye exclusion assay; type: functional; conditions: MCF7, 48 h
[38] = tested on: UO-31; assay: Cytotoxicity against human UO31 cells after 48 hrs by trypan blue dye exclusion assay; type: functional; conditions: UO-31, 48 h
[39] = tested on: OVCAR-8; assay: Cytotoxicity against human OVCAR8 cells after 48 hrs by trypan blue dye exclusion assay; type: functional; conditions: OVCAR-8, 48 h
[40] = tested on: LOX IMVI; assay: Cytotoxicity against human LOXIMVI cells after 48 hrs by trypan blue dye exclusion assay; type: functional
[41] = tested on: HOP-92; assay: Cytotoxicity against human HOP92 cells after 48 hrs by trypan blue dye exclusion assay; type: functional; conditions: HOP-92, 48 h
[42] = tested on: SK-MEL-2; assay: Cytotoxicity against human SK-MEL-2 cells after 48 hrs by trypan blue dye exclusion assay; type: functional; conditions: SK-MEL-2, 48 h
[43] = tested on: NCI-H322M; assay: Cytotoxicity against human NCI-H322M cells after 48 hrs by trypan blue dye exclusion assay; type: functional
[44] = tested on: MDA-MB-468; assay: Cytotoxicity against human MDA-MB-468 cells after 48 hrs by trypan blue dye exclusion assay; type: functional; conditions: MDA-MB-468, 48 h
[45] = tested on: SF-295; assay: Cytotoxicity against human SF295 cells after 48 hrs by trypan blue dye exclusion assay; type: functional; conditions: SF-295, 48 h
[46] = tested on: A498; assay: Cytotoxicity against human A498 cells after 48 hrs by trypan blue dye exclusion assay; type: functional; conditions: A498, 48 h
[47] = tested on: HCC 2998; assay: Cytotoxicity against human HCC2998 cells after 48 hrs by trypan blue dye exclusion assay; type: functional; conditions: HCC 2998, 48 h
[48] = tested on: SK-MEL-5; assay: Cytotoxicity against human SK-MEL-5 cells after 48 hrs by trypan blue dye exclusion assay; type: functional; conditions: SK-MEL-5, 48 h
[49] = tested on: HT-29; assay: Cytotoxicity against human HT-29 cells after 48 hrs by trypan blue dye exclusion assay; type: functional; conditions: HT-29, 48 h
[50] = tested on: CAKI-1; assay: Cytotoxicity against human CAKI-1 cells after 48 hrs by trypan blue dye exclusion assay; type: functional; conditions: CAKI-1, 48 h
[51] = tested on: CCRF-CEM; assay: Cytotoxicity against human CCRF-CEM cells after 48 hrs by trypan blue dye exclusion assay; type: functional
[52] = tested on: HL-60(TB); assay: Cytotoxicity against human HL-60(TB) cells after 48 hrs by trypan blue dye exclusion assay; type: functional; conditions: HL-60, 48 h
[53] = tested on: MOLT-4; assay: Cytotoxicity against human MOLT4 cells after 48 hrs by trypan blue dye exclusion assay; type: functional; conditions: MOLT-4, 48 h
[54] = tested on: 786-0; assay: Cytotoxicity against human 786-0 cells after 48 hrs by trypan blue dye exclusion assay; type: functional; conditions: 786-0, 48 h
[55] = tested on: ACHN; assay: Cytotoxicity against human ACHN cells after 48 hrs by trypan blue dye exclusion assay; type: functional
[56] = tested on: NCI-H23; assay: Cytotoxicity against human NCI-H23 cells after 48 hrs by trypan blue dye exclusion assay; type: functional; conditions: NCI-H23, 48 h
[57] = tested on: KM12; assay: Cytotoxicity against human KM12 cells after 48 hrs by trypan blue dye exclusion assay; type: functional; conditions: KM12, 48 h
[58] = tested on: SW-620; assay: Cytotoxicity against human SW620 cells after 48 hrs by trypan blue dye exclusion assay; type: functional; conditions: SW-620, 48 h
[59] = tested on: OVCAR-5; assay: Cytotoxicity against human OVCAR5 cells after 48 hrs by trypan blue dye exclusion assay; type: functional; conditions: OVCAR-5, 48 h
[60] = tested on: RXF 393; assay: Cytotoxicity against human RXF393 cells after 48 hrs by trypan blue dye exclusion assay; type: functional; conditions: RXF 393, 48 h
[61] = tested on: SR; assay: Cytotoxicity against human SR cells after 48 hrs by trypan blue dye exclusion assay; type: functional
[62] = tested on: TK-10; assay: Cytotoxicity against human TK10 cells after 48 hrs by trypan blue dye exclusion assay; type: functional; conditions: TK-10, 48 h
[63] = tested on: Paracentrotus lividus; assay: Microtubule destabilizing activity in Paracentrotus lividus embryo assessed as embryo spinning at 2 fold less effective threshold concentration after 15 mins to 20 hrs; type: functional, organism-based

With COc1ccc2c(c1)NC1=C(C(=O)OC1)C2c1cc(OC)c2c(c1)OCO2 (stereo not given) the GI50 [1] was 28.3 nM, the GI50 [2] was 46 nM and the GI50 [3] was 25 nM. For the same compound, the GI50 [4] was 13.2 nM, the GI50 [5] was 19.9 nM and the Activity [6] was “inactive”. It also gave a GI50 [7] of 19.5 nM, a GI50 [8] of less than 10 nM and a GI50 [9] of less than 10 nM. The TGI [9] was 26.8 nM, the GI50 [10] was less than 10 nM and the GI50 [11] was 14.6 nM. It also gave a GI50 [12] of less than 10 nM, a GI50 [13] of 51.2 nM and a GI50 [14] of less than 10 nM. The TGI [14] was 12.2 nM, the GI50 [15] was less than 10 nM and the GI50 [16] was less than 10 nM. For the same compound, the GI50 [17] was 56.4 nM, the GI50 [18] was less than 10 nM and the GI50 [19] was greater than 100000 nM. The GI50 [20] was 12.1 nM, the GI50 [21] was 22.5 nM and the Activity [22] was “inactive”. The GI50 [23] was less than 10 nM, the GI50 [24] was 42.6 nM and the GI50 [25] was 19 nM. For the same compound, the GI50 [26] was 14.6 nM, the GI50 [27] was 19.9 nM and the GI50 [28] was 49.9 nM. For the same compound, the GI50 [29] was less than 10 nM, the GI50 [30] was 16.8 nM and the GI50 [31] was greater than 100000 nM. For the same compound, the GI50 [32] was less than 10 nM, the GI50 [33] was 26.8 nM and the GI50 [34] was less than 10 nM. For the same compound, the GI50 [35] was less than 10 nM, the GI50 [36] was 10.1 nM and the GI50 [37] was less than 10 nM. The GI50 [38] was 30 nM, the GI50 [39] was less than 10 nM and the GI50 [40] was less than 10 nM. It also gave a GI50 [41] of 86.2 nM, a GI50 [42] of 26.3 nM and a GI50 [43] of 58.3 nM. The GI50 [44] was less than 10 nM, the GI50 [45] was less than 10 nM and the GI50 [46] was less than 10 nM. The GI50 [47] was 23.3 nM, the GI50 [48] was 10.8 nM and the GI50 [49] was less than 10 nM. The GI50 [50] was 50.2 nM, the GI50 [51] was less than 10 nM and the GI50 [52] was 20.9 nM. The GI50 [53] was 12.9 nM, the GI50 [54] was 24.9 nM and the GI50 [55] was 56.7 nM. The GI50 [56] was 20.2 nM, the GI50 [57] was less than 10 nM and the GI50 [58] was less than 10 nM. For the same compound, the GI50 [59] was 81.7 nM, the GI50 [60] was less than 10 nM and the GI50 [61] was less than 10 nM. The GI50 [62] was 60.7 nM and the Activity [63] was “inactive”.
